Test: Half-life was determined
Type: ADME
Conditions: human

SMILES	half-life
N[C@@H]1[C@H](O)[C@@H](CO)O[C@H]1n1ccc(=O)[nH]c1=O	1.5 min
COc1ccc(C(OCC2OC(n3ccc(=O)[nH]c3=O)C(NC(=O)[C@@H](C)NC(=O)OCC3c4ccccc4-c4ccccc43)C2O)(c2ccccc2)c2ccc(OC)cc2)cc1 (some centres undefined)	13 min
O=C(NCCCC[C@@H](NC(=O)OCC1c2ccccc2-c2ccccc21)C(=O)NC1C(O)C(CO)OC1n1ccc(=O)[nH]c1=O)OCC1c2ccccc2-c2ccccc21 (some centres undefined)	1 min
O=C(N[C@@H](C(=O)NC1C(O)C(CO)OC1n1ccc(=O)[nH]c1=O)c1ccccc1)OCC1c2ccccc2-c2ccccc21 (some centres undefined)	2 min
COc1ccc(C(OCC2OC(n3ccc(=O)[nH]c3=O)C(NC(=O)[C@@H](CC(=O)OCc3ccccc3)NC(=O)OCC3c4ccccc4-c4ccccc43)C2O)(c2ccccc2)c2ccc(OC)cc2)cc1 (some centres undefined)	8 min
COc1ccc(C(OCC2OC(n3ccc(=O)[nH]c3=O)C(NC(=O)[C@@H](CCCCNC(=O)OCC3c4ccccc4-c4ccccc43)NC(=O)OCC3c4ccccc4-c4ccccc43)C2O)(c2ccccc2)c2ccc(OC)cc2)cc1 (some centres undefined)	11.5 min
COc1ccc(C(OCC2OC(n3ccc(=O)[nH]c3=O)C(NC(=O)[C@H](NC(=O)OCC3c4ccccc4-c4ccccc43)c3ccccc3)C2O)(c2ccccc2)c2ccc(OC)cc2)cc1 (some centres undefined)	3 min
O=C(C[C@@H](NC(=O)OCC1c2ccccc2-c2ccccc21)C(=O)NC1C(O)C(CO)OC1n1ccc(=O)[nH]c1=O)OCc1ccccc1 (some centres undefined)	1 min
C[C@@H](NC(=O)OCC1c2ccccc2-c2ccccc21)C(=O)NC1C(O)C(CO)OC1n1ccc(=O)[nH]c1=O (some centres undefined)	1.5 min
